Assay results as given in PubChem BioAssay (NCI).
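Step 1: Grow cells in 96-well plates. Step 2: Expose to compound for 48 hours at 5 concentrations. Step 3: Interpolate endpoints linearly; if unreached, use highest concentration. TGI denotes the concentration required for complete inhibition of growth.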

Key:
Assay in all cases: inhibition of tumour cell growth, NCI panel, 48 h
DLD-1 colon = test system: DLD-1 colon
EKVX NSCLC = test system: EKVX NSCLC
UACC-257 melanoma = test system: UACC-257 melanoma
HOP-18 NSCLC = test system: HOP-18 NSCLC
SK-MEL-2 melanoma = test system: SK-MEL-2 melanoma
K-562 leukemia = test system: K-562 leukemia
NCI-H460 lung = test system: NCI-H460 lung
DMS 114 small cell lung = test system: DMS 114 small cell lung
UACC-62 melanoma = test system: UACC-62 melanoma
SF-295 CNS = test system: SF-295 CNS
ACHN renal = test system: ACHN renal
COLO 205 colon = test system: COLO 205 colon
UO-31 renal = test system: UO-31 renal
LOX IMVI melanoma = test system: LOX IMVI melanoma
HCC-2998 colon = test system: HCC-2998 colon
NCI-H23 lung = test system: NCI-H23 lung
M14 melanoma = test system: M14 melanoma
A498 renal = test system: A498 renal
SNB-19 CNS = test system: SNB-19 CNS
RPMI-8226 leukemia = test system: RPMI-8226 leukemia
CCRF-CEM leukemia = test system: CCRF-CEM leukemia
OVCAR-4 ovarian = test system: OVCAR-4 ovarian
MOLT-4 leukemia = test system: MOLT-4 leukemia
SK-MEL-28 melanoma = test system: SK-MEL-28 melanoma
HT29 colon = test system: HT29 colon
RXF 393 renal = test system: RXF 393 renal
SNB-75 CNS = test system: SNB-75 CNS
HL-60(TB) leukemia = test system: HL-60(TB) leukemia
M19-MEL melanoma = test system: M19-MEL melanoma
RXF-631 renal = test system: RXF-631 renal
OVCAR-8 ovarian = test system: OVCAR-8 ovarian
KM12 colon = test system: KM12 colon
U251 CNS = test system: U251 CNS
786-0 renal = test system: 786-0 renal
KM20L2 colon = test system: KM20L2 colon
HCT-116 colon = test system: HCT-116 colon
DMS 273 small cell lung = test system: DMS 273 small cell lung
SF-539 CNS = test system: SF-539 CNS
OVCAR-3 ovarian = test system: OVCAR-3 ovarian
LXFL 529 NSCLC = test system: LXFL 529 NSCLC
IGROV1 ovarian = test system: IGROV1 ovarian
NCI-H522 lung = test system: NCI-H522 lung
OVCAR-5 ovarian = test system: OVCAR-5 ovarian
SNB-78 CNS = test system: SNB-78 CNS
MALME-3M melanoma = test system: MALME-3M melanoma
SN12C renal = test system: SN12C renal
SF-268 CNS = test system: SF-268 CNS
TK-10 renal = test system: TK-10 renal
HOP-62 NSCLC = test system: HOP-62 NSCLC
HCT-15 colon = test system: HCT-15 colon
HOP-92 NSCLC = test system: HOP-92 NSCLC
SK-OV-3 ovarian = test system: SK-OV-3 ovarian
XF 498 CNS = test system: XF 498 CNS
CAKI-1 renal = test system: CAKI-1 renal
NCI-H226 lung = test system: NCI-H226 lung
SR leukemia = test system: SR leukemia

COc1ccc(C2NC(c3ccc(OC)cc3)C(C)C(=O)C2C)cc1 (stereo not given)
TGI (DLD-1 colon): > 100 µM
TGI (EKVX NSCLC): > 100 µM
TGI (UACC-257 melanoma): > 100 µM
TGI (HOP-18 NSCLC): > 100 µM
TGI (SK-MEL-2 melanoma): > 100 µM
TGI (K-562 leukemia): > 100 µM
TGI (NCI-H460 lung): > 100 µM
TGI (DMS 114 small cell lung): > 100 µM
TGI (UACC-62 melanoma): > 100 µM
TGI (SF-295 CNS): > 100 µM
TGI (ACHN renal): > 100 µM
TGI (COLO 205 colon): > 100 µM
TGI (UO-31 renal): > 100 µM
TGI (LOX IMVI melanoma): > 100 µM
TGI (HCC-2998 colon): > 100 µM
TGI (NCI-H23 lung): > 100 µM
TGI (M14 melanoma): > 100 µM
TGI (A498 renal): > 100 µM
TGI (SNB-19 CNS): > 100 µM
TGI (RPMI-8226 leukemia): > 100 µM
TGI (CCRF-CEM leukemia): > 100 µM
TGI (OVCAR-4 ovarian): > 100 µM
TGI (MOLT-4 leukemia): > 100 µM
TGI (SK-MEL-28 melanoma): > 100 µM
TGI (HT29 colon): > 100 µM
TGI (RXF 393 renal): > 100 µM
TGI (SNB-75 CNS): > 100 µM
TGI (HL-60(TB) leukemia): > 100 µM
TGI (M19-MEL melanoma): > 100 µM
TGI (RXF-631 renal): > 100 µM
TGI (OVCAR-8 ovarian): > 100 µM
TGI (KM12 colon): > 100 µM
TGI (U251 CNS): > 100 µM
TGI (786-0 renal): > 100 µM
TGI (KM20L2 colon): > 100 µM
TGI (HCT-116 colon): > 100 µM
TGI (DMS 273 small cell lung): > 100 µM
TGI (SF-539 CNS): > 100 µM
TGI (OVCAR-3 ovarian): > 100 µM
TGI (LXFL 529 NSCLC): > 100 µM
TGI (IGROV1 ovarian): > 100 µM
TGI (NCI-H522 lung): > 100 µM
TGI (OVCAR-5 ovarian): 97.2 µM
TGI (SNB-78 CNS): > 100 µM
TGI (MALME-3M melanoma): > 100 µM
TGI (SN12C renal): > 100 µM
TGI (SF-268 CNS): > 100 µM
TGI (TK-10 renal): > 100 µM
TGI (HOP-62 NSCLC): > 100 µM
TGI (HCT-15 colon): > 100 µM
TGI (HOP-92 NSCLC): > 100 µM
TGI (SK-OV-3 ovarian): > 100 µM

CNC1CC(n2cc(C)c(=O)[nH]c2=O)OC1CO (stereo not given)
TGI (DLD-1 colon): > 100 µM
TGI (SK-MEL-2 melanoma): > 100 µM
TGI (K-562 leukemia): > 100 µM
TGI (DMS 114 small cell lung): > 100 µM
TGI (UACC-62 melanoma): > 100 µM
TGI (ACHN renal): > 100 µM
TGI (COLO 205 colon): > 100 µM
TGI (UO-31 renal): > 100 µM
TGI (XF 498 CNS): > 100 µM
TGI (HCC-2998 colon): > 100 µM
TGI (NCI-H23 lung): > 100 µM
TGI (M14 melanoma): > 100 µM
TGI (A498 renal): > 100 µM
TGI (RPMI-8226 leukemia): > 100 µM
TGI (CCRF-CEM leukemia): > 100 µM
TGI (OVCAR-4 ovarian): > 100 µM
TGI (MOLT-4 leukemia): > 100 µM
TGI (SK-MEL-28 melanoma): > 100 µM
TGI (SNB-75 CNS): > 100 µM
TGI (CAKI-1 renal): > 100 µM
TGI (NCI-H226 lung): > 100 µM
TGI (HL-60(TB) leukemia): > 100 µM
TGI (SR leukemia): > 100 µM
TGI (M19-MEL melanoma): > 100 µM
TGI (RXF-631 renal): > 100 µM
TGI (786-0 renal): > 100 µM
TGI (HCT-116 colon): > 100 µM
TGI (DMS 273 small cell lung): > 100 µM
TGI (SF-539 CNS): > 100 µM
TGI (LXFL 529 NSCLC): > 100 µM
TGI (IGROV1 ovarian): > 100 µM
TGI (NCI-H522 lung): > 100 µM
TGI (MALME-3M melanoma): > 100 µM
TGI (SN12C renal): > 100 µM
TGI (SF-268 CNS): > 100 µM
TGI (HOP-62 NSCLC): > 100 µM
TGI (HOP-92 NSCLC): > 100 µM
TGI (SK-OV-3 ovarian): > 100 µM
